Test results from patent US20100298141A1, “SUBSTITUTED PYRIDINE N-OXIDE HERBICIDES” (E. I. DU PONT DE NEMOURS AND COMPANY, priority 2007, published 2010).

Assays:
[1] = tested on: green foxtail; assay: Test F preemergence test; type: in vivo, Setaria viridis; settings: scale 0 to 100
Outline: (§1)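 Test chemicals were formulated in a non-phytotoxic solvent mixture with surfactant and applied preemergence to planted seeds or postemergence to sugarcane plants. Plants were kept in a greenhouse for 14 to 21 days, then visually evaluated against controls.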

[2] = tested on: quackgrass; assay: Test F preemergence test; type: in vivo, Elytrigia repens; settings: scale 0 to 100
Outline: as §1

[3] = tested on: annual bluegrass; assay: Test F preemergence test; type: in vivo, Poa annua; settings: scale 0 to 100
Outline: as §1

[4] = tested on: wheat; assay: Test A pre-/postemergence greenhouse test; type: in vivo, Triticum aestivum; settings: for Wheat plant response rating: 0 to 100 scale; for Plant response rating, Wheat: 0 to 100 scale where 0 is no effect and 100 is complete control
Outline: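 Each test compound, dissolved in a non-phytotoxic solvent mixture with surfactant, was sprayed directly onto seeded soil (loam/sand blend) and, at the same moment, onto seedlings carrying one to two leaves. Around ten greenhouse days later, plants were rated visually for injury relative to untreated controls.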

[5] = tested on: mustard; assay: Test F preemergence test; type: in vivo, Brassica nigra; settings: scale 0 to 100
Outline: as §1

[6] = tested on: dallisgrass; assay: Test F preemergence test; type: in vivo, Paspalum dilatatum; settings: scale 0 to 100
Outline: as §1

[7] = tested on: common groundsel; assay: Test F preemergence test; type: in vivo, Senecio vulgaris; settings: scale 0 to 100
Outline: as §1

[8] = tested on: crabgrass; assay: Test C pre-/postemergence test; type: in vivo, Digitaria sanguinalis; settings: for Plant response rating (0 to 100), Crabgrass, Large: 250 g ai/ha
Outline: (§2)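 Seeds were planted and treated preemergence with test chemical in a non-phytotoxic solvent mixture containing surfactant. Postemergence applications of the same formulation went onto plants 2 to 18 cm tall (1- to 4-leaf stage). A dash marks no test result.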

[9] = tested on: umbrella sedge; assay: Test C flooded paddy test; type: in vivo, Cyperus difformis; settings: Flood
Outline: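 Visual injury ratings against untreated controls, taken 13 to 15 days after compound was added to paddy water standing 3 cm above the soil.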

[10] = tested on: Goosegrass; assay: Test C pre-/postemergence test; type: in vivo, Eleusin indica; settings: for Plant response rating (0 to 100), Goosegrass: 250 g ai/ha
Outline: as §2

[11] = tested on: common mallow; assay: Test F preemergence test; type: in vivo, Malva sylvestris; settings: scale 0 to 100
Outline: as §1

[12] = tested on: kochia; assay: Test F preemergence test; type: in vivo, Kochia scoparia; settings: scale 0 to 100
Outline: as §1

[13] = Postemergence, 125 g ai/ha, 0 is no effect, 100 is complete control
[14] = Postemergence, 500 g ai/ha, 0 is no effect, 100 is complete control
[15] = Preemergence, 125 g ai/ha, 0 no effect, 100 complete control
[16] = 31 g ai/ha, Preemergence, scale 0 to 100
[17] = 62 g ai/ha, preemergence, scale 0 (no effect) to 100 (complete control)
[18] = preemergence, 125 g ai/ha, scale 0 (no effect) to 100 (complete control)
[19] = 31 g ai/ha, scale 0 to 100 (0 no effect, 100 complete control)
[20] = 62 g ai/ha, scale 0 to 100, 0 no effect, 100 complete control, 13 to 15 days
[21] = 125 g ai/ha, scale 0 to 100, 0 no effect, 100 complete control, 13 to 15 days
[22] = 250 g ai/ha, scale 0 to 100 (0 no effect, 100 complete control)
[23] = 62 g ai/ha, Preemergence, scale 0 to 100
[24] = Preemergence, 31 g ai/ha, scale 0 to 100 (0 no effect, 100 complete control)

## Cn1nc(C(F)(F)F)c(C[S+]([O-])c2cccc[n+]2[O-])c1Cl (stereo not drawn) [Compound 8]
[1]; 62 g ai/ha, Preemergence
  Foxtail, Green plant response rating: 80
[1]; 125 g ai/ha, preemergence
  Foxtail, Green plant response rating: 90
[1]; Preemergence, 16 g ai/ha
  Plant response rating, Foxtail, Green: 0
[1]; Preemergence, 31 g ai/ha
  Plant response rating, Foxtail, Green: 70
[2]; 62 g ai/ha, Preemergence
  Quackgrass plant response rating: 40
[2]; 125 g ai/ha, preemergence
  Quackgrass plant response rating: 70
[2]; Preemergence, 16 g ai/ha
  Plant response rating, Quackgrass: 0
[2]; Preemergence, 31 g ai/ha
  Plant response rating, Quackgrass: 0
[3]; 62 g ai/ha, Preemergence
  Bluegrass plant response rating: 0
[3]; 125 g ai/ha, preemergence
  Bluegrass plant response rating: 70
[3]; Preemergence, 16 g ai/ha
  Plant response rating, Bluegrass: 0
[3]; Preemergence, 31 g ai/ha
  Plant response rating, Bluegrass: 0
[4]; [13]
  Wheat plant response rating: 30
[4]; [14]
  Wheat plant response rating: 60
[4]; [15]
  Wheat plant response rating: 60
[4]; Preemergence, 500 g ai/ha
  Plant response rating, Wheat: 70
[5]; 62 g ai/ha, Preemergence
  Black Mustard plant response rating: 80
[5]; 125 g ai/ha, preemergence
  Black Mustard plant response rating: 95
[5]; Preemergence, 16 g ai/ha
  Plant response rating, Black Mustard: 0
[5]; Preemergence, 31 g ai/ha
  Plant response rating, Black Mustard: 70
[6]; 62 g ai/ha, Preemergence
  Dallisgrass plant response rating: 80
[6]; 125 g ai/ha, preemergence
  Dallisgrass plant response rating: 98
[6]; Preemergence, 16 g ai/ha
  Plant response rating, Dallisgrass: 0
[6]; Preemergence, 31 g ai/ha
  Plant response rating, Dallisgrass: 20
[7]; 62 g ai/ha, Preemergence
  Groundsel plant response rating: 65
[7]; 125 g ai/ha, preemergence
  Groundsel plant response rating: 80
[7]; Preemergence, 16 g ai/ha
  Plant response rating, Groundsel: 0
[7]; Preemergence, 31 g ai/ha
  Plant response rating, Groundsel: 0
[8]; [16]
  Crabgrass, Large plant response rating: 90
[8]; [17]
  Crabgrass, Large plant response rating: 100
[8]; Preemergence
  Plant response rating (0 to 100), Crabgrass, Large: 100
[8]; [18]
  Crabgrass, Large plant response rating: 100
[9]; [19]
  Plant response rating, Sedge, Umbrella: 0
[9]; [20]
  Plant response rating, Sedge, Umbrella: 0
[9]; [21]
  Plant response rating, Sedge, Umbrella: 85
[9]; [22]
  Plant response rating, Sedge, Umbrella: 100
[10]; [16]
  Goosegrass plant response rating: 98
[10]; [17]
  Goosegrass plant response rating: 100
[10]; Preemergence
  Plant response rating (0 to 100), Goosegrass: 100
[10]; [18]
  Goosegrass plant response rating: 100
[11]; 62 g ai/ha, Preemergence
  Mallow plant response rating: 60
[11]; 125 g ai/ha, preemergence
  Mallow plant response rating: 80
[11]; Preemergence, 16 g ai/ha
  Plant response rating, Mallow: 30
[11]; Preemergence, 31 g ai/ha
  Plant response rating, Mallow: 30
[12]; 62 g ai/ha, Preemergence
  Kochia plant response rating: 0
[12]; 125 g ai/ha, preemergence
  Kochia plant response rating: 100
[12]; Preemergence, 16 g ai/ha
  Plant response rating, Kochia: 0
[12]; Preemergence, 31 g ai/ha
  Plant response rating, Kochia: 0

## Cc1cc[n+]([O-])c(S(=O)(=O)C(C)c2c(C(F)(F)F)nn(C)c2OC(F)F)c1 (stereo not drawn) [Compound 11]
[1]; 62 g ai/ha, Preemergence
  Foxtail, Green plant response rating: 80
[1]; 125 g ai/ha, preemergence
  Foxtail, Green plant response rating: 90
[1]; Preemergence, 16 g ai/ha
  Plant response rating, Foxtail, Green: 5
[1]; Preemergence, 31 g ai/ha
  Plant response rating, Foxtail, Green: 35
[2]; 62 g ai/ha, Preemergence
  Quackgrass plant response rating: 75
[2]; 125 g ai/ha, preemergence
  Quackgrass plant response rating: 90
[2]; Preemergence, 16 g ai/ha
  Plant response rating, Quackgrass: 0
[2]; Preemergence, 31 g ai/ha
  Plant response rating, Quackgrass: 60
[3]; 62 g ai/ha, Preemergence
  Bluegrass plant response rating: 60
[3]; 125 g ai/ha, preemergence
  Bluegrass plant response rating: 90
[3]; Preemergence, 16 g ai/ha
  Plant response rating, Bluegrass: 0
[3]; Preemergence, 31 g ai/ha
  Plant response rating, Bluegrass: 30
[4]; [13]
  Wheat plant response rating: 50
[4]; [14]
  Wheat plant response rating: 60
[4]; [15]
  Wheat plant response rating: 50
[4]; Preemergence, 500 g ai/ha
  Plant response rating, Wheat: 80
[5]; 62 g ai/ha, Preemergence
  Black Mustard plant response rating: 100
[5]; 125 g ai/ha, preemergence
  Black Mustard plant response rating: 100
[5]; Preemergence, 16 g ai/ha
  Plant response rating, Black Mustard: 35
[5]; Preemergence, 31 g ai/ha
  Plant response rating, Black Mustard: 80
[6]; 62 g ai/ha, Preemergence
  Dallisgrass plant response rating: 90
[6]; 125 g ai/ha, preemergence
  Dallisgrass plant response rating: 100
[6]; Preemergence, 16 g ai/ha
  Plant response rating, Dallisgrass: 65
[6]; Preemergence, 31 g ai/ha
  Plant response rating, Dallisgrass: 80
[7]; 62 g ai/ha, Preemergence
  Groundsel plant response rating: 95
[7]; 125 g ai/ha, preemergence
  Groundsel plant response rating: 98
[7]; Preemergence, 16 g ai/ha
  Plant response rating, Groundsel: 0
[7]; Preemergence, 31 g ai/ha
  Plant response rating, Groundsel: 25
[8]; [16]
  Crabgrass, Large plant response rating: 100
[8]; [17]
  Crabgrass, Large plant response rating: 100
[8]; Preemergence
  Plant response rating (0 to 100), Crabgrass, Large: 100
[8]; [18]
  Crabgrass, Large plant response rating: 100
[9]; [19]
  Plant response rating, Sedge, Umbrella: 0
[9]; [20]
  Plant response rating, Sedge, Umbrella: 90
[9]; [21]
  Plant response rating, Sedge, Umbrella: 90
[9]; [22]
  Plant response rating, Sedge, Umbrella: 90
[10]; [16]
  Goosegrass plant response rating: 100
[10]; [17]
  Goosegrass plant response rating: 100
[10]; Preemergence
  Plant response rating (0 to 100), Goosegrass: 100
[10]; [18]
  Goosegrass plant response rating: 100
[11]; 62 g ai/ha, Preemergence
  Mallow plant response rating: 100
[11]; 125 g ai/ha, preemergence
  Mallow plant response rating: 100
[11]; Preemergence, 16 g ai/ha
  Plant response rating, Mallow: 30
[11]; Preemergence, 31 g ai/ha
  Plant response rating, Mallow: 30
[12]; 125 g ai/ha, preemergence
  Kochia plant response rating: 100
[12]; Preemergence, 16 g ai/ha
  Plant response rating, Kochia: 0
[12]; Preemergence, 31 g ai/ha
  Plant response rating, Kochia: 100

## Cc1cc[n+]([O-])c(S(=O)(=O)Cc2c(C(F)(F)F)nn(C)c2Cl)c1 [Compound 19]
[1]; 62 g ai/ha, Preemergence
  Foxtail, Green plant response rating: 75
[1]; 125 g ai/ha, preemergence
  Foxtail, Green plant response rating: 90
[1]; Preemergence, 16 g ai/ha
  Plant response rating, Foxtail, Green: 0
[1]; Preemergence, 31 g ai/ha
  Plant response rating, Foxtail, Green: 50
[2]; 62 g ai/ha, Preemergence
  Quackgrass plant response rating: 40
[2]; 125 g ai/ha, preemergence
  Quackgrass plant response rating: 60
[2]; Preemergence, 16 g ai/ha
  Plant response rating, Quackgrass: 0
[2]; Preemergence, 31 g ai/ha
  Plant response rating, Quackgrass: 0
[3]; 62 g ai/ha, Preemergence
  Bluegrass plant response rating: 0
[3]; 125 g ai/ha, preemergence
  Bluegrass plant response rating: 95
[3]; Preemergence, 16 g ai/ha
  Plant response rating, Bluegrass: 0
[3]; Preemergence, 31 g ai/ha
  Plant response rating, Bluegrass: 0
[4]; [13]
  Wheat plant response rating: 0
[4]; [14]
  Wheat plant response rating: 50
[4]; [15]
  Wheat plant response rating: 40
[4]; Preemergence, 500 g ai/ha
  Plant response rating, Wheat: 70
[5]; 62 g ai/ha, Preemergence
  Black Mustard plant response rating: 100
[5]; 125 g ai/ha, preemergence
  Black Mustard plant response rating: 100
[5]; Preemergence, 16 g ai/ha
  Plant response rating, Black Mustard: 0
[5]; Preemergence, 31 g ai/ha
  Plant response rating, Black Mustard: 20
[6]; 62 g ai/ha, Preemergence
  Dallisgrass plant response rating: 65
[6]; 125 g ai/ha, preemergence
  Dallisgrass plant response rating: 90
[6]; Preemergence, 16 g ai/ha
  Plant response rating, Dallisgrass: 0
[6]; Preemergence, 31 g ai/ha
  Plant response rating, Dallisgrass: 20
[7]; 62 g ai/ha, Preemergence
  Groundsel plant response rating: 15
[7]; 125 g ai/ha, preemergence
  Groundsel plant response rating: 70
[7]; Preemergence, 16 g ai/ha
  Plant response rating, Groundsel: 0
[7]; Preemergence, 31 g ai/ha
  Plant response rating, Groundsel: 0
[8]; [23]
  Crabgrass, Large plant response rating: 100
[8]; [24]
  Plant response rating, Crabgrass, Large: 98
[8]; Preemergence
  Plant response rating (0 to 100), Crabgrass, Large: 100
[9]; [19]
  Plant response rating, Sedge, Umbrella: 0
[9]; [20]
  Plant response rating, Sedge, Umbrella: 0
[9]; [21]
  Plant response rating, Sedge, Umbrella: 70
[9]; 250 g ai/ha, scale 0 to 100, 0 no effect, 100 complete control, 13 to 15 days
  Plant response rating, Sedge, Umbrella: 95
[10]; [23]
  Goosegrass plant response rating: 100
[10]; [24]
  Plant response rating, Goosegrass: 100
[10]; Preemergence
  Plant response rating (0 to 100), Goosegrass: 100
[11]; 62 g ai/ha, Preemergence
  Mallow plant response rating: 0
[11]; 125 g ai/ha, preemergence
  Mallow plant response rating: 40
[11]; Preemergence, 16 g ai/ha
  Plant response rating, Mallow: 0
[11]; Preemergence, 31 g ai/ha
  Plant response rating, Mallow: 0
[12]; 62 g ai/ha, Preemergence
  Kochia plant response rating: 0
[12]; 125 g ai/ha, preemergence
  Kochia plant response rating: 100
[12]; Preemergence, 16 g ai/ha
  Plant response rating, Kochia: 0
[12]; Preemergence, 31 g ai/ha
  Plant response rating, Kochia: 0
